Measured values from ChEMBL document CHEMBL1145013, “Studies on the mechanisms of activation of indolequinone phosphoramidate prodrugs” (J Med Chem, 2003).

How the values were obtained:
[1] = Half life in presence of glutathione; format: ADME; conditions: solution containing glutathione
[2] = Half life in presence of sodium dimethyldithiocarbamate; format: ADME; conditions: solution containing sodium dimethyldithiocarbamate

| SMILES | half-life [1] [min] | half-life [2] [min] |
| --- | --- | --- |
| COC1=CC(=O)c2c(cc(COP(N)(=O)N(CCBr)CCBr)n2C)C1=O (stereo not drawn) | 653 | 26 |
| COC1=CC(=O)c2c(cc(COP(N)(=O)N3CCOCC3)n2C)C1=O (stereo not drawn) | 716 | 659 |
| COC1=CC(=O)c2c(c(COP(N)(=O)N3CCOCC3)cn2C)C1=O (stereo not drawn) | 83 | 34 |
| COC1=CC(=O)c2c(c(COP(N)(=O)N(CCBr)CCBr)cn2C)C1=O (stereo not drawn) | 35 | 14 |
